In patent US20230286973A1, “PROTEIN SECRETION INHIBITORS” (KEZAR LIFE SCIENCES, priority 2020, published 2023):
Where two headings read alike, the source gives them in different places.

Columns and labels:
[1] = Liver Microsome Stability Assay (human); details: human liver microsomes, with NADPH, 1.0 uM compound
Procedure: (§1) Stability of a compound was assessed in the presence of liver microsomes from various sources—mouse, rat, monkey and human liver microsomes. 1.0 uM compound, 0.4% DMSO in 0.1 M Potassium Phosphate with 1.0 mg/mL liver microsomes, were incubated at 37° C. with or without 1 mM NADPH. The samples were quenched at 0, and 30 minutes.

[2] = test system: multiple myeloma cell line NCI-H929; test: H929 Cell Viability Assay; type: cell-based, human; details: Homo sapiens, NCI-H929, 48 h, NCI-H929 cells, Celltiter-Glo
Outline: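 Plate the myeloma cells in RPMI 1640 with 10% FBS, add serially diluted compound, incubate for 48 hours at 37° C, then add CellTiter-Glo and read luciferase signal.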

[3] = test system: TNFα-FL/Gaussia Luciferase; test: Dox Induced TNFα-FL-Gluc Assay; type: cell-based; details: for IC50: 24 hr Dox induction, 293FRT/TO cells, read-out: 24 hr Dox Inducible TNFaFLGluc 293FRT/TO: Mean IC50; for 24 hr Dox Inducible TNFaFLGluc 293FRT/TO: TNF/PD1: ratio of TNFaFLGluc IC50 to PD1ssGluc IC50
Outline: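 Cells are seeded one day ahead, then treated with compound plus doxycycline at 37 °C, 5% CO2. The stable Flp-In 293 T-REx line expresses full-length TNFα (amino acids 1-233) with Gaussia luciferase fused to its 3′ end, inducibly via T-REx.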

[4] = test system: multiple myeloma cell line U266B1; test: U266 Cell Viability Assay; type: cell-based, human; details: Homo sapiens, U-266, 48 h, U266B1 cells, Celltiter-Glo
Outline: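 48 h treatment, 37° C./5% CO2, RPMI 1640 + 10% FBS; viability by CellTiter-Glo luminescence.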

[5] = test system: IL-2-FL/Gaussia Luciferase; test: Dox Induced IL2-FL-Gluc Assay; type: cell-based; details: for IC50: 24 hr Dox induction, 293FRT/TO cells, read-out: 24 hr Dox Inducible IL2FLGluc 293FRT/TO: Mean IC50; for 24 hr Dox Inducible IL2FLGluc 293FRT/TO: IL2/PD1: ratio of IL2FLGluc IC50 to PD1ssGluc IC50
Outline: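 Reporter is Gaussia luciferase fused to the 3′ end of full-length IL-2 (aa 1-153), expressed from a doxycycline-inducible T-REx construct in stably selected Flp-In 293 cells. Compounds were co-added with doxycycline and incubated at 37° C, 5% CO2.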

[6] = test system: HER3-ss+4aa/Gaussia Luciferase; test: Dox-Induced Her3-ss-Gluc Assay; type: cell-based; details: 24 hr Dox induction, 293FRT/TO cells, read-out: 24 hr Dox Inducible Her3(ss + 4)Gluc 293FRT/TO: Mean IC50
Outline: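 Expression of a Gaussia luciferase reporter carrying the HER3 signal sequence plus 4 amino acids is induced by doxycycline in stably transfected Flp-In 293 T-REx cells. Compounds are added with doxycycline at 37° C., 5% CO2. Undefined stereocentres denote stereoisomer mixtures.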

[7] = Liver Microsome Stability Assay (mouse); details: mouse liver microsomes, with NADPH, 1.0 uM compound
Procedure: as §1

[8] = Liver Microsome Stability Assay (rat); details: rat liver microsomes, with NADPH, 1.0 uM compound
Procedure: as §1

[9] = Liver Microsome Stability Assay (monkey); details: monkey liver microsomes, with NADPH, 1.0 uM compound
Procedure: as §1

[10] = test system: PD1-ss+10aa/Gaussia Luciferase; test: Dox-Induced PD1-ss-Gluc Assay; type: cell-based; details: 24 hr Dox induction, 293FRT/TO cells, read-out: 24 hr Dox Inducible PD1ssGluc 293FRT/TO: Mean IC50
Outline: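 Doxycycline-induced expression of a PD1-ss+10aa/Gaussia luciferase reporter is measured in stable Flp-In 293 T-REx cells. Compound dilutions containing doxycycline are added one day after plating and incubated at 37 °C, 5% CO2. Values for unassigned stereocentres refer to stereoisomer mixtures.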

[11] = '<=>' given where both are I.A.

Compound | Liver Microsome Stability (Multiple Species): Human - % Remaining after 30 min w/NADPH [1] [%] | EC50 [2] [µM] | IC50 [3] [µM] | 24 hr Dox Inducible TNFaFLGluc 293FRT/TO: TNF/PD1 [3] | EC50 [4] [µM] | IC50 [5] [nM] | 24 hr Dox Inducible IL2FLGluc 293FRT/TO: IL2/PD1 [5] | IC50 [6] [nM] | Liver Microsome Stability (Multiple Species): Mouse - % Remaining after 30 min w/NADPH [7] [%] | Liver Microsome Stability (Multiple Species): Rat - % Remaining after 30 min w/NADPH [8] [%] | Liver Microsome Stability (Multiple Species): Monkey - % Remaining after 30 min w/NADPH [9] [%] | IC50 [10] [nM] | IC50 ([3]; mean) [µM] | 24 hr Dox Inducible TNFaFLGluc 293FRT/TO: TNF/PD1 [3, 11] | IC50 ([5]; mean) [nM] | 24 hr Dox Inducible IL2FLGluc 293FRT/TO: IL2/PD1 [5, 11] | IC50 ([6]; mean) [nM] | IC50 ([10]; mean) [nM]
O=C(Nc1nc([C@H]2CCCN2c2ccc(OC3CCNC3)cc2)cs1)c1cccn1Cc1ccnc(F)c1 (stereo partly drawn) [Compound A80, 1-((2-fluoropyridin-4-yl)methyl)-N-(4-((2R)-1-(4-(pyrrolidin-3-yloxy)phenyl)pyrrolidin-2-yl)thiazol-2-yl)-1H-pyrrole-2-carboxamide] | 51 | 5.73 | 11.4 | 19.1 | 7.78 | 1840 | 3.1 | 1070 | 71.9 | 88.1 | 17.6 | 595 |  |  |  |  |  | 
O=C(Nc1nc([C@H]2CCCN2c2ccc(OC3=CCNCC3)cc2)cs1)c1cccn1Cc1ccnc(F)c1 [Compound A89, (R)-1-((2-fluoropyridin-4-yl)methyl)-N-(4-(1-(4-((1,2,3,6-tetrahydropyridin-4-yl)oxy)phenyl)pyrrolidin-2-yl)thiazol-2-yl)-1H-pyrrole-2-carboxamide] | 47 | 6.37 | 18.4 | 32.9 | 8.3 | 2710 | 4.9 | 1110 | 40.4 | 56.9 | 2.45 | 558 |  |  |  |  |  | 
CC(=O)N1CC(Oc2ccc(N3CCC[C@@H]3c3csc(NC(=O)c4cccn4Cc4ccnc(F)c4)n3)cc2)C1 [Compound A81, (R)-N-(4-(1-(4-((1-acetylazetidin-3-yl)oxy)phenyl)pyrrolidin-2-yl)thiazol-2-yl)-1-((2-fluoropyridin-4-yl)methyl)-1H-pyrrole-2-carboxamide] | 12.8 | 0.679 | 0.143 | 10.2 | > 25 | 41.5 | 3 | 23.7 | 39.5 | 68.9 | 8.77 | 14 |  |  |  |  |  | 
CC(=O)N(C)CCOc1ccc(N2CCC[C@@H]2c2csc(NC(=O)c3cccn3Cc3ccnc(F)c3)n2)cc1 [Compound A117, (R)-1-((2-fluoropyridin-4-yl)methyl)-N-(4-(1-(4-(2-(N-methylacetamido)ethoxy)phenyl)pyrrolidin-2-yl)thiazol-2-yl)-1H-pyrrole-2-carboxamide] | 2.64 | 0.938 | 0.301 | 10.7 | > 25 | 51 | 1.8 | 33.4 | 0.81 | 8.86 | 0.09 | 28.2 |  |  |  |  |  | 
NCc1ccc(N2CCC[C@@H]2c2csc(NC(=O)c3cccn3Cc3ccncc3)n2)cc1 [Compound A44, (R)-N-(4-(1-(4-(aminomethyl)phenyl)pyrrolidin-2-yl)thiazol-2-yl)-1-(pyridin-4-ylmethyl)-1H-pyrrole-2-carboxamide] | 28.6 | 3.31 | 3.88 | 23.3 | 6.95 | 408 | 2.4 | 415 | 62.6 | 30 | 26 | 167 |  |  |  |  |  | 
O=C(Nc1nc(/C=C/c2coc(C3CC3)n2)cs1)c1cccn1Cc1ccncc1 [Compound B40, (E)-N-(4-(2-(2-cyclopropyloxazol-4-yl)vinyl)thiazol-2-yl)-1-(pyridin-4-ylmethyl)-1H-pyrrole-2-carboxamide] | 0.48 | > 25 | > 25 | >113 | > 25 | 4570 | 21 | 1680 | 5.73 | 0.73 | 2.25 | 221 |  |  |  |  |  | 
NC(=O)c1ccc(N2CCC[C@@H]2c2csc(NC(=O)c3cccn3CC3CCOCC3)n2)cc1 [Compound C105, (R)-N-(4-(1-(4-carbamoylphenyl)pyrrolidin-2-yl)thiazol-2-yl)-1-((tetrahydro-2H-pyran-4-yl)methyl)-1H-pyrrole-2-carboxamide] | 0.19 | 3.65 |  |  | > 25 |  |  |  | 1.99 | 1.71 | 0.67 |  | 0.9 | 25 | 157 | 4.4 | 107 | 36
CC(C)c1nc(/C=C/c2csc(NC(=O)c3cccn3Cc3ccncc3)n2)co1 [Compound B38, (E)-N-(4-(2-(2-isopropyloxazol-4-yl)vinyl)thiazol-2-yl)-1-(pyridin-4-ylmethyl)-1H-pyrrole-2-carboxamide] | 0.54 | 7.56 | 7.05 | 36.6 | 8.93 | 5590 | 29 | 1380 | 6.78 | 1.03 | 0.69 | 192 |  |  |  |  |  | 
O=C(Nc1nc(CCc2ccc(OC(F)(F)F)cn2)cs1)c1cccn1Cc1ccncc1 [Compound E7, 1-(pyridin-4-ylmethyl)-N-(4-(2-(5-(trifluoromethoxy)pyridin-2-yl)ethyl)thiazol-2-yl)-1H-pyrrole-2-carboxamide] | 0.1 | > 25 |  |  | > 25 |  |  |  | 0.38 | 0.28 | 0.23 |  | 2.76 | 17.4 | 1190 | 7.5 | 947 | 158
